Test results published in patent US6310095A, “Inhibitors of protein isoprenyl transferases” (University of Pittsburgh, priority 1998, dated 2001).
Structures can show the parent of a compound that is named as a salt.

Target: T1, protein farnesyltransferase (Rattus norvegicus, UniProt Q02293+Q04631)
T1 construct: Rat brain protein farnesyltransferase activity is measured; from tissue; host or cells: rat brain; purified according to Reiss et al., Cell 62:81-88 (1990), steps one through three
Assay: in vitro inhibition of protein farnesyltransferase (scintillation proximity assay, biotin-K Ras B fragment)
Type: biochemical
Settings: at 1 × 10^-6 M
Method in brief: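 Rat brain enzyme, purified through three steps, in a scintillation proximity assay kit with biotin-K Ras B fragment substrate at 0.1 mM final. Value is % inhibition of farnesylation.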

Structure (SMILES)	% inhibition of farnesyltransferase [%]
CCOC[C@H](CC1CCCCC1)OCc1ccc(C(=O)N[C@@H](CCSC)C(=O)O)c(-c2ccccc2C)c1 [Example 525]	99
CSCC[C@H](NC(=O)c1ccc(CNC(CC2CCCCC2)C(O)C(O)CC(C)C)cc1-c1ccccc1C)C(=O)O (stereo partly shown) [Example 529]	99
CSCC[C@H](NC(=O)c1ccc(COCc2ccoc2)cc1-c1ccccc1C)C(=O)O [Example 530]	94
CSCC[C@H](NC(=O)c1ccc(CS[C@H](CO)Cc2ccccc2)cc1-c1ccccc1)C(=O)O [Example 545]	88
CSCC[C@H](NC(=O)c1ccc(OC/C=C(\C)CCC=C(C)C)cc1-c1ccccc1C)C(=O)O [Example 546]	97
CSCC[C@H](NC(=O)c1ccc(OC/C=C(\C)CC/C=C(\C)CCC=C(C)C)cc1-c1ccccc1C)C(=O)O [Example 547]	91
CSCC[C@H](NC(=O)c1ccc(CSC2CCCCC2)cc1-c1ccccc1C)C(=O)[O-].[Li+] [Example 550]	96
CSCC[C@H](NC(=O)c1ccc(OCCC2CCCCC2)cc1-c1ccccc1C)C(=O)[O-].[Li+] [Example 552]	88
CSCC[C@H](NC(=O)c1ccc(OCCC23CC4CC(CC(C4)C2)C3)cc1-c1ccccc1C)C(=O)O [Example 553]	92
CSCC[C@H](NC(=O)c1ccc(CSCc2ccccc2)cc1-c1ccccc1C)C(=O)[O-].[Li+] [Example 554]	96
CSCC[C@H](NC(=O)c1ccc(CS(=O)(=O)Cc2ccccc2)cc1-c1ccccc1C)C(=O)O [Example 555]	85
CSCC[C@H](NC(=O)c1ccc(CSCc2ccc(C)cc2)cc1-c1ccccc1C)C(=O)[O-].[Li+] [Example 556]	99
CSCC[C@H](NC(=O)c1ccc(CSCc2ccccc2C)cc1-c1ccccc1C)C(=O)[O-].[Li+] [Example 557]	93
CSCC[C@H](NC(=O)c1ccc(OC/C=C/c2ccccc2)cc1-c1ccccc1C)C(=O)O [Example 560]	91
CSCC[C@H](NC(=O)c1ccc(OCCOc2ccccc2)cc1-c1ccccc1C)C(=O)O [Example 561]	91
CSCC[C@H](NC(=O)c1ccc(OCCCC2CCCCC2)cc1-c1ccccc1C)C(=O)O [Example 564]	98
CSCC[C@H](NC(=O)c1ccc(OCCOC2CCCCC2)cc1-c1ccccc1C)C(=O)[O-].[Li+] [Example 565]	94
CSCC[C@H](NC(=O)c1ccc(OCCCOc2ccccc2)cc1-c1ccccc1C)C(=O)O [Example 566]	98
CSCC[C@H](NC(=O)c1ccc(OCCCCOc2ccccc2)cc1-c1ccccc1C)C(=O)O [Example 568]	93
CSCC[C@H](NC(=O)c1ccc(CC(Cc2ccccc2)c2ccccc2)cc1-c1ccccc1C)C(=O)[O-].[Li+] (stereo partly shown) [Example 572]	91
CSCC[C@H](NC(=O)c1ccc(COCc2ccccc2)cc1-c1ccccc1)C(=O)O [Example 575]	70
Cc1ccccc1-c1cc(COCc2ccccc2)ccc1C(=O)N[C@@H](CCS(C)(=O)=O)C(=O)O [Example 576]	88
CSCC[C@H](NC(=O)c1ccc(COCc2ccccc2C)cc1-c1ccccc1C)C(=O)[O-].[Li+] [Example 577]	94
CSCC[C@H](NC(=O)c1ccc(COCc2ccccc2)cc1-c1ccccc1C)C(=O)NS(=O)(=O)c1ccc(C)cc1 [Example 582]	99
CSCC[C@H](NC(=O)c1ccc(COCc2ccc3ccccc3c2)cc1-c1ccccc1C)C(=O)[O-].[Li+] [Example 583]	98

Same assay, conditions: at 1 × 10^-6 M; read-out: % inhibition of farnesyltransferase

Structure (SMILES)	inhibition at 1 µM [%]
CSCC[C@H](NC(=O)c1ccc(CNC(CC2CCCCC2)C(O)C(O)CC(C)C)cc1-c1ccccc1C)C(=O)O (stereo partly shown) [Example 528]	99
CSCC[C@H](NC(=O)c1ccc(NC(=O)Cc2ccccc2)cc1-c1ccccc1C)C(=O)O [Example 540, N-[4-N-phenylacetylamino-2-(2-methylphenyl)benzoyl]methionine lithium salt]	40
CSCC[C@H](NC(=O)c1ccc(NC(=O)Cc2ccc(C)cc2)cc1-c1ccccc1C)C(=O)O [Example 541, N-[4-N-(4'-methylphenylacetyl)amino-2-(2-methylphenyl)benzoyl]methionine lithium salt]	37
COc1ccc(CC(=O)Nc2ccc(C(=O)N[C@@H](CCSC)C(=O)O)c(-c3ccccc3C)c2)cc1 [Example 542, N-[4-N-(4'-methoxyphenylacetyl)amino-2-(2-methylphenyl)benzoyl]methionine lithium salt]	67
COc1ccccc1CCC(=O)Nc1ccc(C(=O)N[C@@H](CCSC)C(=O)O)c(-c2ccccc2C)c1 [Example 544, N-[4-N-(3-(2-methoxyphenyl)propionoyl)amino-2-(2-methylphenyl)benzoyl]methionine lithium salt]	35

Same assay, conditions: at 1 × 10^-7 M

Structure (SMILES)	% inhibition of farnesyltransferase [%]
CSCC[C@H](NC(=O)c1ccc(COCCc2ccco2)cc1-c1ccccc1C)C(=O)[O-].[Li+] [Example 531]	74
CSCC[C@H](NC(=O)c1ccc(COCc2ccc(C)o2)cc1-c1ccccc1C)C(=O)O [Example 532]	88
CSCC[C@H](NC(=O)c1ccc(COCc2cc3ccccc3o2)cc1-c1ccccc1C)C(=O)[O-].[Li+] [Example 533]	91
CSCC[C@H](NC(=O)c1ccc(COC(Cc2ccccc2)c2ccco2)cc1-c1ccccc1C)C(=O)[O-].[Li+] (stereo partly shown) [Example 534]	84
CSCC[C@H](NC(=O)c1ccc(COCCc2ccc(-c3ccc(F)cc3)o2)cc1-c1ccccc1C)C(=O)[O-].[Li+] [Example 535]	89
CSCC[C@H](NC(=O)c1ccc(COCCc2ccc(-c3ccc(Cl)cc3)o2)cc1-c1ccccc1C)C(=O)[O-].[Li+] [Example 536]	79
CSCC[C@H](NC(=O)c1ccc(COCc2cncs2)cc1-c1ccccc1C)C(=O)[O-].[Li+] [Example 539]	89
CSCC[C@H](NC(=O)c1ccc(CSc2ccc3ccccc3c2)cc1-c1ccccc1C)C(=O)O [Example 551]	93
CSCC[C@H](NC(=O)c1ccc(CSCC2CCCCC2)cc1-c1ccccc1C)C(=O)[O-].[Li+] [Example 559]	96
CSCC[C@H](NC(=O)c1ccc(CSCCc2ccccc2)cc1-c1ccccc1C)C(=O)[O-].[Li+] [Example 562]	95
CSCC[C@H](NC(=O)c1ccc(COCc2ccccc2)cc1-c1ccccc1C)C(=O)[O-].[Li+] [Example 571]	88
CSCC[C@H](NC(=O)c1ccc(COc2ccc3ccccc3c2)cc1-c1ccccc1C)C(=O)O [Example 573]	72
CSCC[C@H](NC(=O)c1ccc(COc2cccc3ccccc23)cc1-c1ccccc1C)C(=O)O [Example 574]	81
CSCC[C@H](NC(=O)c1ccc(COCc2cccc(C)c2)cc1-c1ccccc1C)C(=O)[O-].[Li+] [Example 578]	90
CSCC[C@H](NC(=O)c1ccc(COCc2ccc(C)cc2)cc1-c1ccccc1C)C(=O)[O-].[Li+] [Example 579]	92
CSCC[C@H](NC(=O)c1ccc(COCc2ccccc2)cc1-c1ccccc1C)C(=O)NS(=O)(=O)c1ccccc1 [Example 580]	90
CSCC[C@H](NC(=O)c1ccc(COCc2cccc3ccccc23)cc1-c1ccccc1C)C(=O)[O-].[Li+] [Example 584]	96
CSCC[C@H](NC(=O)c1ccc(COCC2CCCCC2)cc1-c1ccccc1C)C(=O)[O-].[Li+] [Example 585]	96

Same assay, conditions: at 1 × 10^-7 M; read-out: % inhibition of farnesyltransferase

Structure (SMILES)	inhibition at 0.1 µM [%]
CSCC[C@H](NC(=O)c1ccc(CN[C@H](/C=C\CC(C)C)CC2CCCCC2)cc1-c1ccccc1C)C(=O)O [Example 526, N-[4-N-(1-Cyclohexyl-6-methylhept-3-en-2-yl)aminomethyl-2-(2-methylphenyl)benzoyl]methionine lithium salt]	96
CSCC[C@H](NC(=O)c1ccc(CN[C@H](CCCC(C)C)CC2CCCCC2)cc1-c1ccccc1C)C(=O)O [Example 527, N-[4-N-(1-Cyclohexyl-6-methylheptan-2-yl)aminomethyl-2-(2-methylphenyl)benzoyl]methionine lithium salt]	97
CSCC[C@H](NC(=O)c1ccc(CN(Cc2ccccc2)Cc2nccs2)cc1-c1ccccc1C)C(=O)O [Example 548, N-[4-N-benzyl-N-(thiazol-2-ylmethyl)aminomethyl-2-(2-methylphenyl)benzoyl]methionine]	86
CSCC[C@H](NC(=O)c1ccc(CN(Cc2ccccc2)Cc2cncs2)cc1-c1ccccc1C)C(=O)O [Example 549, N-[4-N-benzyl-N-(thiazol-5-ylmethyl)aminomethyl-2-(2-methylphenyl)benzoyl]methionine]	98
